Key:
[1] = biological target: T1, Dual specificity protein kinase CLK4 (Homo sapiens, UniProt Q9HAZ1); test: Inhibition of Clk4
[2] = biological target: T1, Dual specificity protein kinase CLK4; test: Binding affinity to Clk4 assessed as dissociation constant
[3] = biological target: Dual specificity tyrosine-phosphorylation-regulated kinase 1B (Homo sapiens, UniProt Q9Y463); test: Binding affinity to Dyrk1B assessed as dissociation constant
[4] = biological target: Dual specificity protein kinase CLK1 (Homo sapiens, UniProt P49759); test: Binding affinity to Clk1 assessed as dissociation constant
[5] = biological target: Dual specificity protein kinase CLK2 (Homo sapiens, UniProt P49760); test: Binding affinity to Clk2 assessed as dissociation constant
[6] = biological target: Dual specificity tyrosine-phosphorylation-regulated kinase 1A (Homo sapiens, UniProt Q13627); test: Binding affinity to Dyrk1A assessed as dissociation constant
[7] = biological target: Epidermal growth factor receptor (Homo sapiens, UniProt P00533); test: Binding affinity to EGFR assessed as dissociation constant
[8] = biological target: Dual specificity protein kinase CLK3 (Homo sapiens, UniProt P49761); test: Binding affinity to Clk3 assessed as dissociation constant
Sequence of Dual specificity protein kinase CLK3 (P49761 whole entry): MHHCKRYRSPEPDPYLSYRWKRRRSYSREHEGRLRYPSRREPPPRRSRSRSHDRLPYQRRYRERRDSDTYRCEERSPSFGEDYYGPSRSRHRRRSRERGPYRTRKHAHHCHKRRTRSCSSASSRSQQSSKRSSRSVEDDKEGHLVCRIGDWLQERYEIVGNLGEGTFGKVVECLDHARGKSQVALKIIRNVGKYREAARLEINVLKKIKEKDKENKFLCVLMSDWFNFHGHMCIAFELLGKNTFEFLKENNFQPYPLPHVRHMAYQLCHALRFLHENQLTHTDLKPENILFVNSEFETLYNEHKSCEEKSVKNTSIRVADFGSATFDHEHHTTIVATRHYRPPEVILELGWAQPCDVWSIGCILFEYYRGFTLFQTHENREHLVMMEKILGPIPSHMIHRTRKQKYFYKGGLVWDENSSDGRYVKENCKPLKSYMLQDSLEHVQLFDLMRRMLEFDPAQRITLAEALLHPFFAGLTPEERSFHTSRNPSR

T1 sequence (Q9HAZ1 whole entry): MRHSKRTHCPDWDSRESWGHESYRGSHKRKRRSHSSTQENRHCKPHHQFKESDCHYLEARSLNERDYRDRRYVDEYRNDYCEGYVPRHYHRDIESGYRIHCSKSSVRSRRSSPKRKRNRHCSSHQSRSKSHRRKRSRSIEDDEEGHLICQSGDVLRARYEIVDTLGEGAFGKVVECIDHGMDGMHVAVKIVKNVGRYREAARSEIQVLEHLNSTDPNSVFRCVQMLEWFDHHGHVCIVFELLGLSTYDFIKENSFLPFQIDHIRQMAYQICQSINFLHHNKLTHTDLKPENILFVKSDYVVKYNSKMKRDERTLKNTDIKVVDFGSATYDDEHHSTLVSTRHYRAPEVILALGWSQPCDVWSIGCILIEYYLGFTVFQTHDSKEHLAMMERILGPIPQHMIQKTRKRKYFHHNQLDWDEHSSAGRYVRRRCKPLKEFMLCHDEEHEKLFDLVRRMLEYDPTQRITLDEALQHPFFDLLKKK
Sequence of Dual specificity tyrosine-phosphorylation-regulated kinase 1B (Q9Y463 whole entry): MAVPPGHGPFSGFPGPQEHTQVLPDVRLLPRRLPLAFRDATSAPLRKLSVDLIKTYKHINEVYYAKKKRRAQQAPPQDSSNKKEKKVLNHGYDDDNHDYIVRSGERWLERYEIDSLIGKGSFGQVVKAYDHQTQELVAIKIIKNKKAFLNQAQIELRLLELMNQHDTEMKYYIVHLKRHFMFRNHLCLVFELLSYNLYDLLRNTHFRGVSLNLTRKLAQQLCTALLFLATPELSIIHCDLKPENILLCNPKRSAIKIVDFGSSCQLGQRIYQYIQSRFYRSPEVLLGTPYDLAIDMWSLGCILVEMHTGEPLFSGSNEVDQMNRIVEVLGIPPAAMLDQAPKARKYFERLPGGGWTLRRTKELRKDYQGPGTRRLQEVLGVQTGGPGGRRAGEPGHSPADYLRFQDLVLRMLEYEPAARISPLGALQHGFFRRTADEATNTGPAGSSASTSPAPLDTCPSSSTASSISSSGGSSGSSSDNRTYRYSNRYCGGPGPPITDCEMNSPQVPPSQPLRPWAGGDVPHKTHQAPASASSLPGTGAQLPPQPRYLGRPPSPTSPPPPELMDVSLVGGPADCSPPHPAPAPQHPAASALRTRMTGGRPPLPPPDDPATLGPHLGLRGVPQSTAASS
Sequence of Dual specificity protein kinase CLK2 (P49760 whole entry): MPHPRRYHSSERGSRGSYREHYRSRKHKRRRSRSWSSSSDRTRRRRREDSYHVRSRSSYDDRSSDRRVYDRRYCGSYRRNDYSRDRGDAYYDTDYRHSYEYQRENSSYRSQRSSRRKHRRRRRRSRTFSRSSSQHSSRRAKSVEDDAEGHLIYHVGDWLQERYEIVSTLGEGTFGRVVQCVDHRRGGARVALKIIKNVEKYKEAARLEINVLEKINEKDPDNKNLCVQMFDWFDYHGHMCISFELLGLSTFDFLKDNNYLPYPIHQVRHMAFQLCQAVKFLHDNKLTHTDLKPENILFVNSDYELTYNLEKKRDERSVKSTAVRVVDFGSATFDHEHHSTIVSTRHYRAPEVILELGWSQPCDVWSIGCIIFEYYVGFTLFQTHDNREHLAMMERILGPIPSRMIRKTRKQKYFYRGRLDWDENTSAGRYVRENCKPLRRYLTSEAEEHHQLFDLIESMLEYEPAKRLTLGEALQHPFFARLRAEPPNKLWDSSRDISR
Sequence of Epidermal growth factor receptor (P00533 whole entry): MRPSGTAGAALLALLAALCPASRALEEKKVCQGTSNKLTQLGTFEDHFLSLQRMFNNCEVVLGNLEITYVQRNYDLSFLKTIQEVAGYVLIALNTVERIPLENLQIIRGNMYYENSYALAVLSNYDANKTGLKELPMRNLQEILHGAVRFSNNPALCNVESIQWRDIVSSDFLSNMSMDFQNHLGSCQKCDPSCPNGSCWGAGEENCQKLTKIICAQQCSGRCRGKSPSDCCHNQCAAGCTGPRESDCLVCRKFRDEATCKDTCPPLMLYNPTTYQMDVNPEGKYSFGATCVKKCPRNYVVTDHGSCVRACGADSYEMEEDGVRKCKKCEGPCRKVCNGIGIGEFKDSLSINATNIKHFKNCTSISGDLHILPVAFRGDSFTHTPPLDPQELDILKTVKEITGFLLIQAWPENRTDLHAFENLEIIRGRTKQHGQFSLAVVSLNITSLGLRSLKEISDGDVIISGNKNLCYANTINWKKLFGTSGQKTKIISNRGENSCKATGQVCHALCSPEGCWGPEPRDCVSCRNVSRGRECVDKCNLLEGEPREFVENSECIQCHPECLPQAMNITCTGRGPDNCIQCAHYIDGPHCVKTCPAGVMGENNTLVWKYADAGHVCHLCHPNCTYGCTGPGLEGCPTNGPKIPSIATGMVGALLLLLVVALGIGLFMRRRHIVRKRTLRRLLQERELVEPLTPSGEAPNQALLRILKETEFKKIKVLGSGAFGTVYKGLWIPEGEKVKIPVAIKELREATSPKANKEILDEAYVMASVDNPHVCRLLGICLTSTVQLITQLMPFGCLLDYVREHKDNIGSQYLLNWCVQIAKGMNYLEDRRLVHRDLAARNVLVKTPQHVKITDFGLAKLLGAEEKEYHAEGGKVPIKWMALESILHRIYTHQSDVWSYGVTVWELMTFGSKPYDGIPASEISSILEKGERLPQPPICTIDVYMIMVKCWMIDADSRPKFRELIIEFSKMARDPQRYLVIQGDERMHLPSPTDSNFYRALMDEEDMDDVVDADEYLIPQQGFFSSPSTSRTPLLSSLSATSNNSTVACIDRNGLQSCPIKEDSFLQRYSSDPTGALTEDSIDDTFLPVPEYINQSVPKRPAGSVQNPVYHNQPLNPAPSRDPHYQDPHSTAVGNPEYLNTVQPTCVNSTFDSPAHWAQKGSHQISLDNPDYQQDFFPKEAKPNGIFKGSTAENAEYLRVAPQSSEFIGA
Sequence of Dual specificity protein kinase CLK1 (P49759 whole entry): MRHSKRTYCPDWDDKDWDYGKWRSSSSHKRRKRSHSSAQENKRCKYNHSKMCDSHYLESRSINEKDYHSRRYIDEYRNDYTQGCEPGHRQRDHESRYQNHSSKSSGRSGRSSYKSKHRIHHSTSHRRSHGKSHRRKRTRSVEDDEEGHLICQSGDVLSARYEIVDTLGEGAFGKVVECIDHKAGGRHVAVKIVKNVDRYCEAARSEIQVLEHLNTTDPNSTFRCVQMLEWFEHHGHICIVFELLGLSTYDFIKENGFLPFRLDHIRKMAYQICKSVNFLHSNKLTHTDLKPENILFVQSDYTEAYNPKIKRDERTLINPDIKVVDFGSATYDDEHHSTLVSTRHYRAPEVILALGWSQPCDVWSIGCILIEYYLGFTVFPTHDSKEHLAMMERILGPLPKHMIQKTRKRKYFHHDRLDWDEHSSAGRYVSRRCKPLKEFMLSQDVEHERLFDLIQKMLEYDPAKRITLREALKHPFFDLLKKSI

IC50 [1] [nM] | Compound | other results
891 | COc1cccc(-c2ccc3ncnc(NCc4cccs4)c3c2)c1 | 
1120 | COc1cccc(-c2ccc3ncnc(NCc4cccc(C)c4)c3c2)c1 | 
1000 | COc1cccc(-c2ccc3ncnc(NCc4cc(C)cs4)c3c2)c1 | 
100 | c1cncc(CNc2ncnc3ccc(-c4ccc5c(c4)OCO5)cc23)c1 | 
3550 | COc1cccc(-c2ccc3ncnc(NCc4cccnc4)c3c2)c1 | 
794 | c1cncc(CNc2ncnc3ccc(-c4ccco4)cc23)c1 | 
708 | COc1cccc(-c2ccc3ncnc(NCc4cccc(F)c4)c3c2)c1 | 
1000 | COc1cccc(-c2ccc3ncnc(NCc4ccoc4)c3c2)c1 | 

The remaining lines, values behind:

Compound | IC50 [1] [nM] | other results
Cc1cccc(CNc2ncnc3ccc(-c4ccc5c(c4)OCO5)cc23)c1 | 126 | 
Cc1csc(CNc2ncnc3ccc(-c4ccc5c(c4)OCO5)cc23)c1 | 178 | 
c1coc(-c2ccc3ncnc(NCc4cccs4)c3c2)c1 | 250 | 
Cc1cccc(CNc2ncnc3ccc(-c4ccc5c(c4)OCCO5)cc23)c1 | 631 | 
Cc1noc(C)c1-c1ccc2ncnc(NCc3cccc(F)c3)c2c1 | 178 | 
Fc1cccc(CNc2ncnc3ccc(-c4ccc5c(c4)OCO5)cc23)c1 | 126 | 
c1nc(NCc2ccoc2)c2cc(-c3ccc4c(c3)OCO4)ccc2n1 | 63 | 
Fc1cccc(CNc2ncnc3ccc(-c4ccco4)cc23)c1 | 141 | 
c1csc(CNc2ncnc3ccc(-c4ccc5c(c4)OCO5)cc23)c1 | 63 | Kd [2]: 50 nM; Kd [3]: 430 nM; Kd [4]: 37 nM; Kd [5]: 680 nM; Kd [6]: 27 nM; Kd [7]: 230 nM; Kd [8]: 470 nM
Cc1noc(C)c1-c1ccc2ncnc(NCc3cccs3)c2c1 | 158 | 
c1cncc(CNc2ncnc3ccc(-c4ccc5c(c4)OCCO5)cc23)c1 | 447 | 
Cc1csc(CNc2ncnc3ccc(-c4ccc5c(c4)OCCO5)cc23)c1 | 501 | 
Cc1cccc(CNc2ncnc3ccc(-c4ccco4)cc23)c1 | 224 | 
c1coc(-c2ccc3ncnc(NCc4ccoc4)c3c2)c1 | 111 | 
Cc1csc(CNc2ncnc3ccc(-c4c(C)noc4C)cc23)c1 | 501 | 

— ChEMBL document CHEMBL1156118, “Evaluation of substituted 6-arylquinazolin-4-amines as potent and selective inhibitors of cdc2-like kinases (Clk)” (Bioorg Med Chem Lett, 2009)
